Values of other authors in patent publication US20090215892A1, “Octanol Formulations and Methods of Treatment Using the Same” (priority 2005, published 2009).

Experiments:
essential tremor [1] = conditions: twelve patients
mice = conditions: tested orally in mice
[2] = ordinary conditions of use and storage
essential tremor [3] = conditions: lactose capsule form
[4] = test system: hereditary essential tremor; conditions: patients with hereditary essential tremor

For CCCCCCCCO [Example 1-octanol, 1-octanol], which “solubility in water” value is on record?
The value was “slightly soluble”.

And the “Solubility in Water at 40° C. (Wt %)” value?
Its value is 0.065 Wt %.

What about the “duration of reduction of peak tremor amplitude versus baseline” value (essential tremor [1]; 1 mg/kg 1-octanol, no improvement in placebo group (Bushara 2002)) of the same molecule?
The value was “up to 2 hours”.

What about the “change of tremor amplitude frequency” value (essential tremor [1]; single oral dose of 1 mg/kg, anhydrous lactose coated capsule (Bushara 2004)) of the same molecule?
The value was “decrease”.

What about the “toxicity LD5O” value (mice) of the same molecule?
Its value is 1790 mg/kg.

And the “stability” value [2]?
Its value is “stable”.

What about the side-effect noted (essential tremor [3]; single oral doses up to 64 mg/kg) of the same molecule?
The side-effect noted was “unusual taste”.

What about the tolerated dose (essential tremor [3]; single oral doses, patients with essential tremor) of the same molecule?
Its tolerated dose is “up to 64 mg/kg”.

Which “Solubility in Water at 40° C. (Wt %)” value does the source give for CCCCCCC(C)O (centres unmarked) [Example 2-octanol, 2-octanol] here?
The value was 0.089 Wt %.

For CCCCC(O)CCC (centres unmarked) [Example 4-octanol, 4-octanol], which “Solubility in Water at 40° C. (Wt %)” value is on record?
The value was 0.095 Wt %.

With CCO [ethanol] as the molecule, how does the “patients in whom treatment was effective” value [4] read?
The value was 50%.
